Reference: US20040063643A1, “Bombesin antagonists” (Pfizer Inc., priority 2002, published 2004)

Tests used:
[1] = target: T1, human bombesin BB1 receptors (Homo sapiens, UniProt P28336); assay: Bombesin BB1 receptor binding assay, [125I][6-14]Bombesin, CHO cell membranes; conditions: membranes from CHO cells expressing human BB1
T1 construct: expressed in transfected cells; host or cells: CHO cells
Description: The compounds of the present invention are a potent class of bombesin antagonists. Bombesin antagonism may be measured using the following binding assay using membranes from CHO cells expressing the human bombesin BB1 receptors.
Cells are maintained in Ham's F12 medium (Life Technologies Ltd, Cat No. 31765-027) supplemented with 10% FBS (Life Tech. Ltd., 10109-155) and 2 mM glutamine (or Glutamax in media). Cells are routinely passaged once weekly (split 1:5, approximate seeding density=1-4 million per […] flask), and fed every 2 days with fresh medium. Cells are frozen down (in Hams F12 containing 5% DMSO) 4-7 days after passaging and stored at −70° C. until required for use in binding experiments.
Frozen cells rapidly thawed and diluted with excess medium (each aliquot made up to 40 ml).
Cells harvested by centrifuging at 3000 g for 4 min at 21° C.
Cells resuspended in known volume of assay buffer, and cell count performed.
Membranes prepared by polytronning (setting 5, 10 secs). […]
(§1) For each assay plate, total (1% DMSO) and non-specific (1 μM, 1% DMSO), binding will be measured for the ligand on the receptor. Specific binding of the radioactive ligand to the receptor can thus be calculated to which specific binding of the radioactive ligand in the presence of a competing compound can be calculated and expressed as percentage inhibition of radioactive ligand binding.

BB2 = BB2 (Homo sapiens, UniProt P30550); assay: Bombesin BB2 receptor binding assay
BB2, sequence (P30550 whole entry): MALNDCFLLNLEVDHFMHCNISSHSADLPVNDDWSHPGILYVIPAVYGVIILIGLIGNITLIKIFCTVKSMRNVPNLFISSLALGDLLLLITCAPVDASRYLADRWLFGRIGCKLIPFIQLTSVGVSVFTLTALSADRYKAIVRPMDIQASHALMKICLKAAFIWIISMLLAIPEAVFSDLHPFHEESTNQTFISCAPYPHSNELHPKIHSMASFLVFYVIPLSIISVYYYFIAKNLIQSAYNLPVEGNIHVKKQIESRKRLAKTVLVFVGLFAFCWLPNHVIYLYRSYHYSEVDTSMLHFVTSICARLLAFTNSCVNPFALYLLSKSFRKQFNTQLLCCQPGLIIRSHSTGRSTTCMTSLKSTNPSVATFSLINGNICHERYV
Description: Drug dilutions are performed using the Tecan Genesis/Miniprep handling stations. Assays are set up as follows
25 μl test compound/total/NSB
200 μl cell memb preparation
Assay additions using deep well Multidrop.
Non-specific binding is defined by 1 μM Bombesin 1% DMSO (final concentration).
1. Add membranes to start incubation. Vortex and incubate at 21° C. GRP assay=90 min; NMB assay=60 min.
2. Terminate reactions by rapid filtration onto GF\C filters or GF\C Unifilter plates presoaked in 0.2% PEI for >1 hour) using the appropriate Brandel cell harvester.
3. Wash with ice-cold HEPES HCl (50 mM, pH 7.4 at 21° C.).
Filter mats 6×1 ml total wash volume
Unifilter plates 2×1 ml total wash volume
4. Unifilters are dried at 50° C. for 60 minutes. Add 50 μl Microscint-0, Seal plates with Top-Seal A and count using TopCount NXT.
as §1

T1 sequence (P28336 whole entry): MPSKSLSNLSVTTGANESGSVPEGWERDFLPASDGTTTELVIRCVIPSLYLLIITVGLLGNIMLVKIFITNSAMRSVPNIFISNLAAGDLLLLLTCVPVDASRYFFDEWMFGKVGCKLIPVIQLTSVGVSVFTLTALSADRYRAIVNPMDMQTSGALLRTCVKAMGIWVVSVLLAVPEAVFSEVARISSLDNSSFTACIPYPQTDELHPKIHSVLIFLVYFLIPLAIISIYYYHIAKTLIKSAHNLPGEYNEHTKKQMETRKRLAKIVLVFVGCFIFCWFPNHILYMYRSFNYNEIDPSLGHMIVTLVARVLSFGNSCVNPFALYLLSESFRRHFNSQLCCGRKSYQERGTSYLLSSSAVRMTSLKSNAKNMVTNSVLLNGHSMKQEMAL

melting point [°C] | Ki [1] [nM] | Ki (BB2) [nM] | SMILES
112.5 to 113.5 |  |  | CC(C)c1cccc(C(C)C)c1NC(=O)N(Cc1ccccc1)CC1(c2ncccn2)CCCCC1 [Example 181, 1-Benzyl-3-(2,6-diisopropyl-phenyl)-1-(1-pyrimidin-2-yl-cyclohexylmethyl)-urea]
 | 82 | 3590 | O=C(NCc1cccc(Cl)c1Cl)N(Cc1ccc(O)cc1)CC1(c2ccccn2)CCCCC1 [Example 1, 3-(2,3-Dichloro-benzyl)-1-(4-hydroxy-benzyl)-1-(1-pyridin-2-yl-cyclohexylmethyl)-urea]
150 to 152 |  |  | CC(C)c1cccc(C(C)C)c1NC(=O)N(Cc1ccccc1)CC1(c2nnnn2C)CCCCC1 [Example 180, 1-Benzyl-3-(2,6-diisopropyl-phenyl)-1-[1-(1-methyl-1H-tetrazol-5-yl)-cyclohexylmethyl]-urea]
102 to 103 |  |  | Cc1cccc(CNC(=O)N(CC2CC2)CC2(c3ccccn3)CCCCC2)c1C [Example 184, 1-Cyclopropylmethyl-3-(2,3-dimethyl-benzyl)-1-(1-pyridin-2-yl-cyclohexylmethyl)-urea]
